# In paper PMC3416781, “Functional Characterizations of Chemosensory Proteins of the Alfalfa Plant Bug Adelphocoris lineolatus Indicate Their Involvement in Host Recognition” (PLoS ONE, 2012):
# “And” between values parts separate entries of the source, which are not always exact repeats. Equal entries are not always repeated. Where two headings read alike, the source gives them in different places.
# How the values were obtained:
# AlinCSP1 = AlinCSP1 (Adelphocoris lineolatus, UniProt J7EJ71); experiment: biochemical; type: binding
# Chain of AlinCSP1 (J7EJ71 entry or part of it): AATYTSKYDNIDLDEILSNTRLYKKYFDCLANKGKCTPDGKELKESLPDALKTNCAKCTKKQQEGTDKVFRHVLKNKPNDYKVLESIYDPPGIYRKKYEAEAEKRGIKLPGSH
# Description: (§1) Fluorescence binding assays were performed on an F-380 fluorescence spectrophotometer (Tianjin, China) in a 1 cm light path quartz cuvette. The slit width used for excitation and emission was both 10 nm. The fluorescent probe N-phenyl-1-naphthylamine (1-NPN) was dissolved in methanol with a 1 mM stock solution. 1-NPN was excited at 337 nm and emission spectra were recorded between 390 nm and 530 nm.
# (§2) All values reported were obtained from three independent measurements.
# (§3) For determining binding constants, the intensity values corresponding to the maximum fluorescence emission were plotted against free ligand concentration. Bound ligand was evaluated from the values of fluorescence intensity assuming the protein was 100% active, with a stoichiometry of 1∶1 protein:ligand at saturation. The curves were linearized using Scatchard Plot.
# AlinCSP2 = AlinCSP2 (Adelphocoris lineolatus, UniProt E7BLG5); experiment: biochemical; type: binding
# Chain of AlinCSP2 (E7BLG5 entry or part of it): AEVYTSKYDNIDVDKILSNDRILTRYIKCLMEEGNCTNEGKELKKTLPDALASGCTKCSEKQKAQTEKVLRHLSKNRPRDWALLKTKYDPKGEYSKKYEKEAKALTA
# Description: as §1, §2, §3
# AlinCSP3 = AlinCSP3 (Adelphocoris lineolatus, UniProt E7BLG4); experiment: biochemical; type: binding
# Chain of AlinCSP3 (E7BLG4 entry or part of it): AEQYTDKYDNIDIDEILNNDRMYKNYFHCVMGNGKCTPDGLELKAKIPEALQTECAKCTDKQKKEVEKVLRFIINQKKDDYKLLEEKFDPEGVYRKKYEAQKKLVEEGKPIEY
# Description: as §1, §2, §3
# A. lineolatus antennae = experiment: Electroantennogram (EAG) recordings; parameters: species or system Adelphocoris lineolatus; details: normalized to 2-octanone; for EAG response, male versus female antennae: Student t-test between sexes; for EAG response in words: male and female adult antennae, 10% (v/v) in paraffin oil, good ligand = more than 50% of 2-octanone response
# Excerpt: Electrophysiological (EAG) recordings from each sex of adult individuals were made using Ag-AgCl glass pipette electrodes filled with 3 M KCl solution [69], [70]. The insects were anaesthetized by chilling, the antenna was amputated at the base and the tip of the antenna was cut off. The excised antenna was mounted between the electrodes by one teardrop of Spectra R360 electrically conductive gel (Syntech, Netherlands). The base of the antenna was connected to the reference electrode, while the terminal of tip-cut off antenna was connected to the recording electrode. An air stimulus controller CS-55 (Syntech, Netherlands) was used for air and chemical stimulants delivery with a constant flow of 10 ml/second flowed continuously over the antenna through the open end of the glass tube, which was positioned 1 cm from the antenna.
# Twenty microliters of tested chemicals (100 µl/ml, 10% (v/v) dilution in paraffin oil except the hexadecanoic acid dissolved in hexane with 100 µg/ml) were applied to filter paper strips (1.5 cm×4 cm, Whatman No.1), and the solvent was allowed to evaporate for 30 sec before the paper strip was inserted into the glass Pasteur pipette cartridge (10 cm long, Fisher Scientific, Pittsburgh, Pennsylvania, USA). The chemicals were tested randomly, stimulus duration time was 0.5 second and an interval of at least 30 seconds was taken between stimulations for antennal recovery. Chemical odorants used for the EAG recordings are the same as used in the binding assays. […] The paraffin oil (Fluka, Buchs, Switzerland) was used to dissolve the chemicals and treated as control compound [71]. Each chemical was tested against six individual male and female antennae, and each antenna was tested three times. The signals were passed through a high impedance amplifier (CS-05 model, Syntech, the Netherlands), EAG responses were initially measured in millivolts (peak height of depolarization) and then converted to normalized responses by the Syntech EAG 2000 program (Syntech, the Netherlands). Response to the solvent control was subtracted from all normalized response and the normalized EAG responses were expressed as a percentage to the reference compound response. All results are presented as mean (±SE) normalized EAG responses. EAG responses between male and female individuals were compared with the Student t-test using SAS software.
# [1] = KD (µM) AlinCSP1, given as u.d., u.d. = KD not calculated because IC50>50 µM
# [2] = KD (µM) AlinCSP2, given as u.d., u.d. = KD not calculated because IC50>50 µM
# [3] = 1-NPN and protein at 2 µM, 50 mM Tris-HCl pH 7.4, KD calculated from IC50, mean of three measurements, read-out: KD (µM) AlinCSP1
# [4] = 1-NPN and protein at 2 µM, 50 mM Tris-HCl pH 7.4, KD calculated from IC50, mean of three measurements, read-out: KD (µM) AlinCSP2
# [5] = 1-NPN and protein at 2 µM, 50 mM Tris-HCl pH 7.4, KD calculated from IC50, mean of three measurements, read-out: KD (µM) AlinCSP3
# [6] = u.d. = KD not calculated because IC50>50 µM, read-out: KD (µM) AlinCSP3, given as u.d.
# [7] = KD (µM) AlinCSP1, 1-NPN and protein at 2 µM, 50 mM Tris-HCl pH 7.4, KD calculated from IC50, mean of three measurements
# [8] = KD (µM) AlinCSP2, 1-NPN and protein at 2 µM, 50 mM Tris-HCl pH 7.4, KD calculated from IC50, mean of three measurements
# [9] = KD (µM) AlinCSP3, 1-NPN and protein at 2 µM, 50 mM Tris-HCl pH 7.4, KD calculated from IC50, mean of three measurements
# [10] = u.d. = KD not calculated because IC50>50 µM, read-out: KD (µM) AlinCSP1, given as u.d.
# [11] = u.d. = KD not calculated because IC50>50 µM, read-out: KD (µM) AlinCSP2, given as u.d.
compound,measurement,setting,value
CC(C)=CCC/C(C)=C/C=O [Citral],Kd,AlinCSP1; [1],> 50 µM
same,Kd,AlinCSP2; [2],> 50 µM
same,Kd,"AlinCSP3; KD (µM) AlinCSP3, given as u.d., u.d. = KD not calculated because IC50>50 µM",> 50 µM
(+)-α-Pinene,Kd,AlinCSP1; [3],31.7 ± 0.98 µM
same,Kd,AlinCSP2; [4],30.6 ± 0.71 µM
same,Kd,AlinCSP3; [5],27.2 ± 1.02 µM
CCCCCCCC [Octane],Kd,AlinCSP1; [3],42.1 ± 1.42 µM
same,Kd,AlinCSP2; [4],44.4 ± 1.36 µM
same,Kd,AlinCSP3; [5],45.4 ± 1.54 µM
same,"EAG response, male versus female antennae",A. lineolatus antennae,significantly higher EAG responses from male antennae than from female antennae
CCCCCCCCCCC [Undecane],Kd,AlinCSP1; [3],38.4 ± 1.54 µM
same,Kd,AlinCSP2; [4],39.6 ± 2.36 µM
same,Kd,AlinCSP3; [6],> 50 µM
same,"EAG response, male versus female antennae",A. lineolatus antennae,significantly higher EAG responses from male antennae than from female antennae
CC1(C)[C@@H]2CC[C@@]1(C)[C@H](O)C2 (racemic) [Isoborneol],Kd,AlinCSP1; [7],24.2 ± 1.42 µM
same,Kd,AlinCSP2; [8],21.1 ± 2.04 µM
same,Kd,AlinCSP3; [9],28.6 ± 1.68 µM
CC/C=C\CCO [(Z)-3-Hexen-1-ol],Kd,AlinCSP1; [7],12.5 ± 2.32 µM
same,Kd,AlinCSP2; [8],15.1 ± 1.79 µM
same,Kd,AlinCSP3; [9],16.3 ± 1.98 µM
same,EAG response in words,A. lineolatus antennae,elicited significant antennal responses from both male and female
CCCCCCC(C)=O [2-Octanone],Kd,AlinCSP1; [10],> 50 µM
same,Kd,AlinCSP2; [11],> 50 µM
same,Kd,AlinCSP3; [5],39.5 ± 1.91 µM
CCCCCC(C)=O [2-Heptanone],Kd,AlinCSP1; [3],42.9 ± 2.89 µM
same,Kd,AlinCSP2; [11],> 50 µM
same,Kd,AlinCSP3; [5],41.2 ± 2.56 µM
same,"EAG response, male versus female antennae",A. lineolatus antennae,significantly higher EAG responses from female antennae than from male antennae
CCCCCCC(=O)OCC [Ethyl heptanoate],Kd,AlinCSP1; [3],25.3 µM and 43.2 µM
same,Kd,AlinCSP2; [4],45.3 µM and 38.3 µM
same,Kd,AlinCSP3; [5],38.3 µM and 35.3 µM
CCCCCCCCCC(C)O (stereo not drawn) [2-Undecanol],Kd,AlinCSP1; [10],> 50 µM
same,Kd,AlinCSP2; [11],> 50 µM
same,Kd,AlinCSP3; [6],> 50 µM
CCCCC=O [Valeraldehyde],Kd,AlinCSP1; [3],17.6 ± 2.54 µM
same,Kd,AlinCSP2; [4],13.4 ± 2.41 µM
same,Kd,AlinCSP3; [5],11.2 ± 1.52 µM
same,EAG response in words,A. lineolatus antennae,elicited significant antennal responses from both male and female
CCCCCCCCCC=O [Decanal],Kd,AlinCSP1; [10],> 50 µM
same,Kd,AlinCSP2; [4],45.9 ± 1.71 µM
same,Kd,AlinCSP3; [5],42.3 ± 2.76 µM
CCC/C=C/C=O [(E)-2-Hexen-1-al],Kd,AlinCSP1; [7],11.3 ± 1.07 µM
same,Kd,AlinCSP2; [8],13.2 ± 2.05 µM
same,Kd,AlinCSP3; [9],14.5 ± 2.59 µM
same,EAG response in words,A. lineolatus antennae,elicited significant antennal responses from both male and female
CCCCCCOC(=O)CCC [Hexyl butyrate],Kd,AlinCSP1; [3],46.8 ± 1.85 µM
same,Kd,AlinCSP2; [11],> 50 µM
same,Kd,AlinCSP3; [6],> 50 µM
CCCCCCCCCCCCCCO [Tetradecanol],Kd,AlinCSP1; [10],> 50 µM
same,Kd,AlinCSP2; [4],35.8 ± 3.01 µM
same,Kd,AlinCSP3; [6],> 50 µM
c1ccc2[nH]ccc2c1 [Indole],Kd,AlinCSP1; [7],27.1 ± 1.91 µM
same,Kd,AlinCSP2; [8],22.4 ± 2.01 µM
same,Kd,AlinCSP3; [9],24.6 ± 2.16 µM
CC1=CC=C(C(C)C)CC1 [α-Terpinene],Kd,AlinCSP1; [1],> 50 µM
same,Kd,AlinCSP2; [2],> 50 µM
same,Kd,AlinCSP3; [9],45.5 ± 2.06 µM
CCCCCCCCCCCC=O [Dodecanal],Kd,AlinCSP1; [10],> 50 µM
same,Kd,AlinCSP2; [11],> 50 µM
same,Kd,AlinCSP3; [6],> 50 µM
CCCCOC(C)=O [Butyl acetate],Kd,AlinCSP1; [7],26.6 ± 1.87 µM
same,Kd,AlinCSP2; [8],41.2 ± 2.89 µM
same,Kd,AlinCSP3; [9],34.5 ± 2.79 µM
CCOC(=O)Cc1ccccc1 [Ethyl phenylacetate],Kd,AlinCSP1; [7],27.3 ± 2.02 µM
same,Kd,AlinCSP2; [8],25.3 ± 1.98 µM
same,Kd,AlinCSP3; [9],24.4 ± 1.32 µM
COC(=O)Cc1ccccc1 [Methyl phenylacetate],Kd,AlinCSP1; [7],32.1 ± 1.85 µM
same,Kd,AlinCSP2; [8],30.6 ± 1.92 µM
same,Kd,AlinCSP3; [9],22.2 ± 0.87 µM
CCCCC [Pentane],Kd,AlinCSP1; [3],42.2 ± 1.95 µM
same,Kd,AlinCSP2; [4],39.5 ± 2.54 µM
same,Kd,AlinCSP3; [5],35.6 ± 2.61 µM
CCCCCCCCC=O [Nonanal],Kd,AlinCSP1; [3],43.6 ± 1.11 µM
same,Kd,AlinCSP2; [11],> 50 µM
same,Kd,AlinCSP3; [6],> 50 µM
CCCCCCCC(C)=O [2-Nonanone],Kd,AlinCSP1; [10],> 50 µM
same,Kd,AlinCSP2; [4],42.4 ± 2.21 µM
same,Kd,AlinCSP3; [6],> 50 µM
